One test deals with human BACE-1. The note with it: cited from earlier work.
Test [1] has as its system transgenic Drosophila AD models. Details: method as in PMID 22348084. The settings on record: five different transgenic Drosophila AD models; cited from earlier work.
The target in the next test is T1, recombinant human BACE-1 (Homo sapiens, UniProt P56817).
T1 construct: purchased R&D Systems (Minneapolis, MN, USA)
Description: FRET-based enzyme assay, BACE-1 inhibition. The test is classed as biochemical. The settings on record: for IC50: pH 4.5, 1 h at 25 °C; for Slope ± SE: slope of concentration-inhibition fit.

Where two headings read alike, the source gives them in different places.

T1 sequence (P56817 46-501): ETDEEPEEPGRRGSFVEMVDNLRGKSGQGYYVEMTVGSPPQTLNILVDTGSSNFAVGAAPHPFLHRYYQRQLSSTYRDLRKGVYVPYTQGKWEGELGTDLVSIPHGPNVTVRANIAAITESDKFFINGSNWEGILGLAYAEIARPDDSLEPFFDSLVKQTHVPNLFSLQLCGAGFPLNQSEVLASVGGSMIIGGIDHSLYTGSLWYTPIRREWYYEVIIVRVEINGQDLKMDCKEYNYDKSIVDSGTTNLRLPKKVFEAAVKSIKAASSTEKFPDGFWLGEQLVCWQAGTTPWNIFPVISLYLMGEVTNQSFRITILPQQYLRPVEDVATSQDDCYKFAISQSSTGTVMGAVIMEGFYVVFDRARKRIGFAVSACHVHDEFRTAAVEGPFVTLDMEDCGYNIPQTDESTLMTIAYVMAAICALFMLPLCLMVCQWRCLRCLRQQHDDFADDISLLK

In the case of `COc1cc2c(cc1O)CC[n+]1cc3c4c(ccc3cc1-2)OCO4` [groenlandicine], the concentration for half-maximal inhibition (IC50) (as a rule, the midpoint of a concentration-inhibition curve) in the test on human BACE-1 (alkaloids) is 19.7 µM. In the case of `C=C[C@@](C)(/C=C/c1ccc(O)cc1)CCC=C(C)C` [bakuchiol], in the test on human BACE-1, the IC50 was 21.4 µM. For the molecule `COc1cc(/C=C/C(=O)CC(=O)/C=C/c2ccc(O)c(OC)c2)ccc1O` [curcumin], the improved lifespan entry in test [1] was “up to 75%”. Regarding `COc1ccc(-c2cc(=O)c3c(O)cc(O)cc3o2)cc1` [Pure acacetin, acacetin], on recombinant human BACE-1 (read-out: IC50, μM (95% CL)), the IC50 is 81.2 µM. At recombinant human BACE-1, the “Slope ± SE” value came to 0.4 ± 0.03. Regarding `O=C(O[C@@H]1O[C@@H]2COC(=O)c3cc(O)c(O)c(O)c3-c3c(cc(O)c(O)c3O)C(=O)O[C@H]([C@H]1O)[C@@H]2O)c1cc(O)c(O)c(O)c1` [corilagin], the 50% inhibitory concentration (IC50) in the test with human BACE-1 (tannins) was 34 µM. For the molecule `O=C(O)/C=C/c1ccc(O)cc1` [p-coumaric acid], the IC50 in the test on human BACE-1 (phenylpropanoids) was 90 µM. Regarding `CC1(C)CC[C@]2(C(=O)O)CC[C@]3(C)C(=CC[C@@H]4[C@@]5(C)C[C@@H](O)[C@H](O)C(C)(C)[C@@H]5CC[C@]43C)[C@@H]2C1` [Maslinic acid, maslinic acid], the IC50 on recombinant human BACE-1 (IC50, μM (95% CL)) is 488 µM. The “Slope ± SE” value at recombinant human BACE-1 is recorded as 1.4 ± 0.09. Consider `CC1(C)CC[C@]2(C(=O)O)CC[C@]3(C)C(=CC[C@@H]4[C@@]5(C)CC[C@H](O)C(C)(C)[C@@H]5CC[C@]43C)[C@@H]2C1` [Oleanolic acid, oleanolic acid], for which the 50% inhibitory concentration (IC50) on recombinant human BACE-1 (read-out: IC50, μM (95% CL)) worked out at 355 µM. For the molecule `COc1cc2c(cc1OC)-c1cc3ccc4c(c3c[n+]1CC2)OCO4` [epiberberi], the half-maximal inhibitory concentration (IC50) in the test on human BACE-1 (alkaloids) is 8.55 µM.

Take `O=C1O[C@H]2[C@@H]3OC(=O)c4cc(O)c(O)c(O)c4-c4c(cc(O)c(O)c4O)C(=O)OC[C@H]2O[C@@H](OC(=O)c2cc(O)c(O)c(O)c2)[C@@H]3OC(=O)c2cc(O)c(O)c3c2[C@@H]2C1=CC(=O)[C@](O)(O3)C2(O)O` [geraniin]: the half-maximal inhibitory concentration (IC50) in the test with human BACE-1 (tannins) is 4 µM. As for `C/C=C/c1cc(=O)c2c(C)cc(OC)c([C@@H]3O[C@H](CO)[C@@H](O)[C@H](O)[C@H]3O)c2o1` [C-2′-decoumaroyl-aloeresin G], the half-inhibitory concentration (IC50) with human BACE-1 (benzopyranoids) is 20.5 µM. Take `COc1cc(C)c2c(=O)cc(C[C@@H](C)O)oc2c1[C@@H]1O[C@H](CO)[C@@H](O)[C@H](O)[C@H]1OC(=O)/C=C/c1ccc(O)cc1` [aloeresin D]: the IC50 with human BACE-1 (benzopyranoids) was 39 µM.

These data come from article PMC4632086, “Effects and possible mechanisms of action of acacetin on the behavior and eye morphology of Drosophila models of Alzheimer’s disease” (Scientific Reports, 2015).
